# According to ChEMBL document CHEMBL5303573, “Mapping human microbiome drug metabolism by gut bacteria and their genes” (Nature, 2019):
# What was measured:
# [1] = The drug is tested on Dorea formicigenerans strain: ATCC27755 for biotransformation. The drug concentrations were measured before and after a 12-h incubation by liquid-chromatography-coupled mass spectrometry (LC–MS); conditions: 2 µM
# [2] = bacteroides fragilis, 12 h, 2 µM
# Description: The drug is tested on Bacteroides fragilis strain: NCTC 9343 for biotransformation. The drug concentrations were measured before and after a 12-h incubation by liquid-chromatography-coupled mass spectrometry (LC–MS)
# [3] = The drug is tested on Edwardsiella tarda strain: ATCC23685 for biotransformation. The drug concentrations were measured before and after a 12-h incubation by liquid-chromatography-coupled mass spectrometry (LC–MS); conditions: 2 µM
# [4] = The drug is tested on Clostridium sporogenes strain: ATCC15579 for biotransformation. The drug concentrations were measured before and after a 12-h incubation by liquid-chromatography-coupled mass spectrometry (LC–MS); conditions: 2 µM
# [5] = The drug is tested on Blautia luti strain: DSM14534 for biotransformation. The drug concentrations were measured before and after a 12-h incubation by liquid-chromatography-coupled mass spectrometry (LC–MS); type: ADME; design: dose 2 uM, timepoint 0 vs 12 hours; conditions: 2 µM
# [6] = parabacteroides johnsonii, 12 h, 2 µM
# Description: The drug is tested on Parabacteroides johnsonii strain: DSM18315 for biotransformation. The drug concentrations were measured before and after a 12-h incubation by liquid-chromatography-coupled mass spectrometry (LC–MS)
# [7] = The drug is tested on Bacteroides caccae strain: ATCC43185 for biotransformation. The drug concentrations were measured before and after a 12-h incubation by liquid-chromatography-coupled mass spectrometry (LC–MS); conditions: 2 µM
# [8] = The drug is tested on Clostridium symbiosum strain: ATCC14940 for biotransformation. The drug concentrations were measured before and after a 12-h incubation by liquid-chromatography-coupled mass spectrometry (LC–MS); conditions: 2 µM
# [9] = The drug is tested on Subdoligranulum variabile strain: DSM15176 for biotransformation. The drug concentrations were measured before and after a 12-h incubation by liquid-chromatography-coupled mass spectrometry (LC–MS); conditions: 2 µM
# [10] = bacteroides fragilis, 12 h, 2 µM; remark: listed apart in the source
# Description: The drug is tested on Bacteroides fragilis strain: 3397 (T10) for biotransformation. The drug concentrations were measured before and after a 12-h incubation by liquid-chromatography-coupled mass spectrometry (LC–MS)
# [11] = anaerostipes sp., 12 h, 2 µM
# Description: The drug is tested on Anaerostipes sp. strain: fecal isolate for biotransformation. The drug concentrations were measured before and after a 12-h incubation by liquid-chromatography-coupled mass spectrometry (LC–MS)
# [12] = The drug is tested on Ruminococcus torques strain: ATCC27756 for biotransformation. The drug concentrations were measured before and after a 12-h incubation by liquid-chromatography-coupled mass spectrometry (LC–MS); type: ADME; design: dose 2 uM, timepoint 0 vs 12 hours; conditions: 2 µM
# [13] = akkermansia muciniphila, 12 h, 2 µM
# Description: The drug is tested on Akkermansia muciniphila strain: ATCC BAA-835 for biotransformation. The drug concentrations were measured before and after a 12-h incubation by liquid-chromatography-coupled mass spectrometry (LC–MS)
# [14] = The drug is tested on Bacteroides fragilis strain: HMW610 for biotransformation. The drug concentrations were measured before and after a 12-h incubation by liquid-chromatography-coupled mass spectrometry (LC–MS); conditions: 2 µM
# [15] = bacteroides thetaiotaomicron, 12 h, 2 µM
# Description: The drug is tested on Bacteroides thetaiotaomicron strain: 3731 for biotransformation. The drug concentrations were measured before and after a 12-h incubation by liquid-chromatography-coupled mass spectrometry (LC–MS)
# [16] = segatella copri, 12 h, 2 µM
# Description: The drug is tested on Prevotella copri strain: DSM18205 for biotransformation. The drug concentrations were measured before and after a 12-h incubation by liquid-chromatography-coupled mass spectrometry (LC–MS)
# [17] = The drug is tested on Clostridium sp. strain: fecal isolate for biotransformation. The drug concentrations were measured before and after a 12-h incubation by liquid-chromatography-coupled mass spectrometry (LC–MS); conditions: 2 µM
# [18] = The drug is tested on Providencia stuartii strain: ATCC25827 for biotransformation. The drug concentrations were measured before and after a 12-h incubation by liquid-chromatography-coupled mass spectrometry (LC–MS); conditions: 2 µM
# [19] = The drug is tested on Collinsella intestinalis strain: DSM13280 for biotransformation. The drug concentrations were measured before and after a 12-h incubation by liquid-chromatography-coupled mass spectrometry (LC–MS); conditions: 2 µM
# [20] = The drug is tested on Providencia rettgeri strain: DSM1131 for biotransformation. The drug concentrations were measured before and after a 12-h incubation by liquid-chromatography-coupled mass spectrometry (LC–MS); type: ADME; design: dose 2 uM, timepoint 0 vs 12 hours; conditions: 2 µM
SMILES,Bacterial Biotransformation [1],Bacterial Biotransformation [2],Bacterial Biotransformation [3],Bacterial Biotransformation [4],Bacterial Biotransformation [5],Bacterial Biotransformation [6],Bacterial Biotransformation [7],Bacterial Biotransformation [8],Bacterial Biotransformation [9],Bacterial Biotransformation [10],Bacterial Biotransformation [11],Bacterial Biotransformation [12],Bacterial Biotransformation [13],Bacterial Biotransformation [14],Bacterial Biotransformation [15],Bacterial Biotransformation [16],Bacterial Biotransformation [17],Bacterial Biotransformation [18],Bacterial Biotransformation [19],Bacterial Biotransformation [20]
O=C(O)COCCN1CCN(C(c2ccccc2)c2ccc(Cl)cc2)CC1 (stereo not drawn) [CETIRIZINE],Compound NOT metabolized,Compound metabolized,Compound NOT metabolized,Compound NOT metabolized,Compound NOT metabolized,Compound NOT metabolized,Compound NOT metabolized,Compound NOT metabolized,Compound metabolized,Compound metabolized,Compound NOT metabolized,Compound NOT metabolized,Compound NOT metabolized,Compound metabolized,Compound metabolized,Compound metabolized,–,–,–,–
CN1CCN(CC/C=C2/c3ccccc3Sc3ccc(S(=O)(=O)N(C)C)cc32)CC1 [THIOTHIXENE],Compound NOT metabolized,Compound metabolized,Compound metabolized,–,Compound NOT metabolized,Compound metabolized,Compound NOT metabolized,Compound NOT metabolized,Compound NOT metabolized,Compound NOT metabolized,Compound metabolized,Compound NOT metabolized,Compound NOT metabolized,Compound NOT metabolized,Compound NOT metabolized,Compound metabolized,Compound metabolized,Compound metabolized,Compound NOT metabolized,–
CCCC(=O)Nc1ccc(OCC(O)CNC(C)C)c(C(C)=O)c1 (stereo not drawn) [ACEBUTOLOL],Compound NOT metabolized,Compound NOT metabolized,Compound NOT metabolized,Compound NOT metabolized,Compound NOT metabolized,Compound NOT metabolized,Compound NOT metabolized,Compound NOT metabolized,Compound NOT metabolized,Compound NOT metabolized,Compound NOT metabolized,Compound NOT metabolized,Compound NOT metabolized,Compound NOT metabolized,Compound NOT metabolized,Compound NOT metabolized,–,Compound NOT metabolized,Compound NOT metabolized,Compound NOT metabolized
CC(C)(Oc1ccc(CCNC(=O)c2ccc(Cl)cc2)cc1)C(=O)O [BEZAFIBRATE],Compound metabolized,Compound metabolized,Compound metabolized,Compound metabolized,Compound metabolized,Compound NOT metabolized,Compound metabolized,Compound metabolized,–,Compound metabolized,Compound metabolized,Compound metabolized,Compound metabolized,Compound metabolized,Compound metabolized,Compound metabolized,Compound metabolized,Compound metabolized,Compound metabolized,Compound metabolized
COc1cc(NC(C)CCCN)c2ncccc2c1.O=P(O)(O)O.O=P(O)(O)O (stereo not drawn) [PRIMAQUINE PHOSPHATE],–,Compound NOT metabolized,–,Compound NOT metabolized,–,Compound metabolized,Compound NOT metabolized,Compound metabolized,Compound NOT metabolized,Compound metabolized,Compound NOT metabolized,Compound NOT metabolized,Compound NOT metabolized,–,–,Compound metabolized,–,–,Compound metabolized,Compound NOT metabolized
CC(=O)OCC(=O)NCCCOc1cccc(CN2CCCCC2)c1 [ROXATIDINE ACETATE],Compound metabolized,Compound metabolized,Compound metabolized,–,Compound metabolized,Compound metabolized,Compound metabolized,Compound NOT metabolized,Compound metabolized,Compound metabolized,Compound metabolized,Compound metabolized,Compound NOT metabolized,Compound metabolized,Compound metabolized,Compound metabolized,–,Compound metabolized,Compound metabolized,Compound metabolized
CCCc1nc(C(C)(C)O)c(C(=O)OCc2oc(=O)oc2C)n1Cc1ccc(-c2ccccc2-c2nnn[nH]2)cc1 [OLMESARTAN MEDOXOMIL],Compound metabolized,Compound metabolized,Compound metabolized,–,–,Compound metabolized,Compound metabolized,Compound metabolized,Compound metabolized,Compound metabolized,Compound metabolized,–,Compound metabolized,Compound metabolized,–,Compound metabolized,Compound metabolized,Compound metabolized,–,–
Br.CN(C)CCCC1(c2ccc(F)cc2)OCc2cc(C#N)ccc21 (stereo not drawn) [CITALOPRAM HYDROBROMIDE],Compound NOT metabolized,Compound NOT metabolized,Compound NOT metabolized,Compound NOT metabolized,Compound NOT metabolized,Compound NOT metabolized,Compound NOT metabolized,Compound NOT metabolized,–,Compound NOT metabolized,Compound NOT metabolized,Compound NOT metabolized,Compound NOT metabolized,Compound NOT metabolized,Compound NOT metabolized,Compound NOT metabolized,Compound NOT metabolized,Compound NOT metabolized,Compound NOT metabolized,Compound NOT metabolized
Clc1ccc(Cn2c(CN3CCCC3)nc3ccccc32)cc1 [CLEMIZOLE],Compound NOT metabolized,–,Compound NOT metabolized,Compound NOT metabolized,Compound NOT metabolized,Compound NOT metabolized,Compound NOT metabolized,Compound NOT metabolized,Compound NOT metabolized,Compound NOT metabolized,Compound NOT metabolized,Compound NOT metabolized,–,Compound NOT metabolized,Compound NOT metabolized,Compound NOT metabolized,–,Compound NOT metabolized,Compound NOT metabolized,Compound NOT metabolized
